Reference: patent US8614170B2, “Method for treating fracturing water” (Schlumberger Technology Corporation, priority 2008, dated 2013)

Tests used:
[1] = test system: planktonic sulfate reducing bacteria; experiment: Efficacy of metabolic inhibitor for planktonic sulfate reducing bacteria (NACE standard TMO194-94 test method); type: cell-based; conditions: planktonic SRB, field mix water samples at 85 deg F. (29.4 deg C.), FIG. 1
Protocol: (§1) Efficacy of metabolic inhibitor for sulfate reducing bacteria was tested. NACE standard TMO194-94 test method was employed for testing the presence of general heterotrophic bacteria (GHB), acid producing bacteria (APB), and sulphate reducing bacteria (SRB) in field mix water samples at 85 deg F. (29.4 deg C.) containing different metabolic inhibitors and microbiocides: 100 ppm active or 200 ppm of calcium nitration solution and 125 ppm active glut or 500 ppm glut solution were used. In a first example, shown in FIG. 1, efficacy of metabolic inhibitor for planktonic sulfate reducing bacteria is tested. In a second example, shown in FIG. 2, efficacy of metabolic inhibitor for sessile sulfate reducing bacteria is tested.

[2] = test system: sessile sulfate reducing bacteria; experiment: Efficacy of metabolic inhibitor for sessile sulfate reducing bacteria (NACE standard TMO194-94 test method); type: cell-based, sulfate reducing bacteria (SRB)
Protocol: as §1

## calcium nitration solution [metabolic inhibitor]
[1]
  efficacy against sulfate reducing bacteria: kill and/or inhibit the growth
[2]; maximum effect after 28 days
  impact on sessile versus planktonic population: greater impact on the sessile bacteria population than the planktonic population
[2]; sessile SRB, field mix water samples at 85 deg F. (29.4 deg C.), FIG. 2
  efficacy against sulfate reducing bacteria: kill and/or inhibit the growth
